Patent publication US11207331B2, “Agents, compositions and methods for enhancing neurological function” (University of Southern California, priority 2007, dated 2021)
Entries after “also recorded” stand apart in the source; their conditions may differ.

Tests used:
Type in all cases: in vivo, mouse
phosphorylated tau = assay: Phospho-tau immunoreactivity
β-amyloid = β-amyloid expression with antibody 6E10 (Western blot, immunostaining); details: for decrease of 56 kDa β-amyloid (Aβ*56) band intensity vs vehicle: cortex
Experimental: In a pilot project to determine the impact of longterm exposure to THP, the impact of THP, 10 mg/kg s.c. thrice weekly for 3 months, on the progression of Alzheimer's disease (AD) pathology in 3-6 month old 3×TgAD mice was investigated. Mouse brain hemisphere sections were immunostained with specific antibody (6E10) against Aβ or HT7, which recognizes tau and PHF-tau between residue 159 and 163 and visualized with FITC conjugated second antibody.
In another experiment, THP (10 mg/kg/week, administered once a week for 6 months) was administered to 9- and 12-month male mice transgenic for Alzheimer's disease (3×Tg-AD). The 9 month old animals were started on THP at 3 months of age prior to the development of beta amyloid, whereas the 12 month old animals were begun at 6 months of age when beta amyloid had already begun to accumulate within neurons. Typically, the development of intraneuronal beta amyloid is seen in 6 and 9 month old animals and the development of plaques in 12 month old animals. Plaques are rarely seen in 9 month old animals.
Brain sections were stained with beta amyloid antibody 6E10.
THP (10 mg/kg) or vehicle was transdermal treated once a week to 3-month-old 3×Tg-AD mice for 6 months. Western blot analysis was conducted using brain protein from hippocampus with beta amyloid antibody 6E10, which recognizes the abnormally processed isoforms, as well as precursor forms of beta amyloid protein.
THP (10 mg/kg) or vehicle was subcutaneously administered once a month, once per week for 6 months, or once every other day for 3 months. Brain sections of treated mice were stained with beta amyloid antibody 6E10 which recognizes the abnormally processed isoforms, as well as precursor forms of beta amyloid protein.
Further studies were conducted using a dosing regime of once a week for six months administered subcutaneously. Three and six months old 3×Tg-AD and age-matched non-Tg mice were chosen for the experiments, since AD pathology (Aβ) starts development at 3-month and abundant accumulation at 6-months. Allopregnanolone was subcutaneously (s.c.) administrated with 10 mg/kg once per week for 6 months. For neurogenesis and neurosurvival study, BrdU, IdU and CIdU were intraperitoneal (i.p.) injected at the first 5 days, mid 5 days and 5 days before sacrifice during 6-month treatment. After 6 months of allopregnanolone treatment, mice, at 9- and 12-month old, were sacrificed.
Western blot analysis was conducted using brain protein from frontal-parietal-temporal cortex with beta amyloid antibody 6E10, which recognizes the abnormally processed isoforms, as well as precursor forms of beta amyloid protein. The expression of different forms of beta amyloid in 3×Tg-AD mice was characterized.

[1] = tested on: BrdU positive cells per hippocampus; assay: Survival of BrdU labeled cells in hippocampus after behavioural testing
Experimental: Mice of each genotype and age received a subcutaneous (s.c.) injection of THP at a concentration of 10 mg/kg body weight (BW), an optimal dose of THP-[…] based on our previous studies. One hour after THP injection, mice were intraperitoneally (i.p.) injected with 100 mg/kg BW bromodeoxyuridine (BrdU). Two experimental paradigms were used: 1) THP treatment for behavior and cell survival assessment, in which animals received a single shot of THP/vehicle, followed by a 7-day neurogenesis and migration phase, followed by a 5-day trace-conditioning test followed 9 days later by a 1-day memory test, and scarified 21 days after a single THP injection at which time FACS analysis of BrdU positive cells was performed to assess cell survival; 2).
Hippocampus was dissected from the fixed hemispheres from cell survival assessment experiment using consistent anatomical landmarks as criteria for dissection as described in the literature. The rostral ⅓ of the hippocampus lobe was removed to avoid the subventricular zone and rostral migratory stream proliferative pools. The extracted hippocampi were homogenized using Next advance 24 sample homogenizer (Next Advance Inc., NY) for 3 minutes on speed 7. This procedure lyses the plasma lemma while preserves the nuclear envelope intact. The nuclei sample was collected into a regular 1.5 mL microcentrifuge tube by washing the beads and tube 4 times using 200 μL of PBS, and then centrifuged for 10 minutes at 10,000 rpm. Once all of the nuclei were collected in a pellet, the supernatant was discarded. The pellet was then re-suspended in 600 μL of PBS plus 0.5% Triton x-100. The number of nuclear density was estimated by counting the propidium iodide (PI), a fluorescent molecule stoichiometrically binds to DNA by intercalating between the bases with no sequence preference, positive particles. Aliquots of 25 μl were re-suspended in 200 μL of a 0.2 M solution of boric acid, pH 9.0, and heated for 1 h at 75° C. for epitope retrieval. After washed in PBS, the nuclei were incubated for 24 hours at 4° C. with primary mouse monoclonal anti-BrdU antibody (1:100, Abcam, Ab12219) and subsequently with FITC-conjugated goat anti-mouse IgG secondary antibody (1:100 in PBS; Vector Labs, FI-2001). The remainder of cell suspension is diluted to 500 μL and sent for flow cytometry assay using Beckman FC 500 System with CXP Software. Propidium iodide (PI) cells were first gated on a histogram; the expressing cells were visualized on a forward/side scatter plot. PI cells were ‘back-gated’ on the forward/side scatter plot to eliminate debris prior to analysis; this also eliminated auto fluorescence of the sample. Gates were always set using dissociates with cell aliquots which lack of the first antibody, but which were incubated with second antibody and processed alongside the experimental procedure. PI-labeled cells in a fixed volume were gated, and the number of cells showing BrdU signal was analyzed. Data were expressed as total positive cells per hippocampus.
To determine whether cognitive performance was correlated with survival of neuroprogenitor cells, hippocampi from behavioral test animals were analyzed for total number of BrdU positive cells using fluorescence activated cell sorting (FACS). As BrdU was administered one hour post THP injection at the start of the behavioral experiment, FACS analysis detected the total number of surviving BrdU+ cells and thus can be used as a marker of neural progenitor cells that survived and integrated into the hippocampal neuronal network. In 6-months-old vehicle treated non-Tg mice, BrdU+ cell survival was 2003.6±229.5.
We sought to determine whether cell survival was directly attributable to THP exposure or whether cell survival was dependent on the training experience. Thus, the relationship between survival of BrdU positive cells and cognitive performance on the memory phase of the behavioral testing was analyzed. […]

[2] = 10 mg/kg once a week for six months
[3] = 3×Tg-AD mice, once a week for 6 months

## CC(=O)[C@H]1CC[C@H]2[C@@H]3CC[C@H]4C[C@H](O)CC[C@]4(C)[C@H]3CC[C@]12C [THP, 3α-hydroxy-5α-pregnan-20-one]
Phosphorylated tau; [2]
  immunoreactivity of phosphorylated tau: decreases the immunoreactivity of phosphorylated tau
Phosphorylated tau; [3]
  AT8 immunoreactivity, immunoblotting: did not show a significantly reduction of AT8 immunoreactivity
  AT8 immunostaining: lower levels of immunoreactivity in THP-treated hippocampal CA1, cortex and amygdala
β-amyloid; [2]
  immunocytochemical detection of Abeta*56: substantially decreases Abeta*56 in hippocampal neurons
β-amyloid; 10 mg/kg s.c. every other day for 3 months or once a week for 6 months
  6E10 immunoreactivity: significantly decreases 6E10 immunoreactivity
β-amyloid; 10 mg/kg s.c. once a month
  6E10 immunoreactivity: no effect
β-amyloid; [3]
  6E10 / intraneuronal Aβ immunoreactivity in brain sections: lower in THP-treated brain region CA1, Cortex and Amygdala than vehicle treated-brain, but not in the subiculum; also recorded: lower in THP-treated 9-month old 3×Tg-AD mice hippocampus, cortex, and amygdala than in vehicle-treated brain, but not in subiculum
β-amyloid; 3×TgAD mice, 10 mg/kg s.c. thrice weekly for 3 months
  AD pathology markers (Aβ 6E10, tau HT7 immunoreactivity): reduced the level of AD pathology markers in 3×TgAD mouse hippocampal CA1
β-amyloid; 9-month 3×Tg-AD mice, 10 mg/kg s.c. once a week for 6 months
  reduction of Aβ 6-mer 27 kDa band intensity: 35±10%
β-amyloid; 9-month old 3×Tg-AD mice, 10 mg/kg s.c. once a week for 6 months
  decrease of 56 kDa β-amyloid (Aβ*56) band intensity vs vehicle: 25±4%
β-amyloid; 12-month old 3×Tg mice
  Aβ 6-mer 27 kDa band intensity vs vehicle: no difference
β-amyloid; 12-month old 3×Tg-AD mice, 10 mg/kg s.c. once a week for 6 months
  decrease of 56 kDa β-amyloid (Aβ*56) band intensity vs vehicle: 15±4%
β-amyloid; transdermal 10 mg/kg once a week for 6 months, 9-month old 3×Tg-AD mice, hippocampus
  decrease of 28 kDa β-amyloid oligomer band intensity vs vehicle: 39±13%
[1]; 3×TgAD mice, 3 and 6 month, declined with age thereafter
  THP-induced proliferation (FACS BrdU) after 23 days of learning and memory: Significant THP-induced proliferation
[1]; 3×TgAD mice, 6-months-old
  fold promotion of BrdU+ cell survival: greater than 2 fold
[1]; 3×TgAD mice, 6-months-old, 21 days after 10 mg/kg
  surviving BrdU+ cells per hippocampus (FACS): 1372.5±326.2
[1]; 3×TgAD mice, 9-months-old
  surviving BrdU+ cells per hippocampus (FACS): 899.3±313.1
[1]; 3×TgAD mice, survived BrdU cells
  BrdU cells: 1088
[1]; 3×TgAD mice, unbiased stereological analysis
  number of surviving cells generated 20 days prior to sacrifice: near doubling in the number of surviving cells
[1]; 12-months-old non-tg and 3×TgAD mice
  BrdU+ cell survival vs vehicle: no significant effect
[1]; Non-Tg mice, 3, 6, 9, 12 month
  BrdU positive cells, treatment vs vehicle: did not show statistical significance between treatment and vehicle groups
[1]; all ages
  BrdU+ cell number 21 days after THP administration: an increase in BrdU+ cell number was observed at all ages
[1]; non-Tg mice, 6-months-old, 21 days after 10 mg/kg
  surviving BrdU+ cells per hippocampus (FACS): 2772.2±534.9
[1]; non-Tg mice, 9-months-old
  surviving BrdU+ cells per hippocampus (FACS): 2255.3±662.4
